{"source": "paper PMC6685790", "about": "(Nature structural & molecular biology, 2008)", "key": {"[1]": {"target": "T1, GlyR α1^L98A (Homo sapiens, UniProt P23415, L126A)", "T1 sequence (P23415 29-457 L126A)": "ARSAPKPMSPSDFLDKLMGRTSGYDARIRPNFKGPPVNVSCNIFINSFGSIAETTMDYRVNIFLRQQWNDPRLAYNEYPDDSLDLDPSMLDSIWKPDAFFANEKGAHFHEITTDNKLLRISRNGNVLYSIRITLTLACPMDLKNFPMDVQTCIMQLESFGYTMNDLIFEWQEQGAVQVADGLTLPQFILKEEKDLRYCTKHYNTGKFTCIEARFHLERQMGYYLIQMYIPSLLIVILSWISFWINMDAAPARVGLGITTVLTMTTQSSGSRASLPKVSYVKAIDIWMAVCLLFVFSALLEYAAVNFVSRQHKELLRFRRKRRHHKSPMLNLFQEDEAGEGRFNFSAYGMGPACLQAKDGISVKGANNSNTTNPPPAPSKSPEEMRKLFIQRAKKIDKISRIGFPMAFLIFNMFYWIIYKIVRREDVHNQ", "assay": "Whole-cell recording of substituted GlyR in HEK cells", "format": "cell-based"}, "[2]": {"target": "T2, GlyR α1^F99A (Homo sapiens, UniProt P23415, F127A)", "T2 sequence (P23415 29-457 F127A)": "T1 sequence (P23415 29-457 L126A) with A98L, F99A", "assay": "Whole-cell recording of substituted GlyR in HEK cells", "format": "cell-based"}, "[3]": {"target": "T3, GlyR α1^L134A (Homo sapiens, UniProt P23415, L162A)", "T3 sequence (P23415 29-457 L162A)": "T1 sequence (P23415 29-457 L126A) with A98L, L134A", "assay": "Whole-cell recording of substituted GlyR in HEK cells", "format": "cell-based"}, "[4]": {"test_system": "Zn^2+-activated GlyRs (ZAGs)", "format": "cell-based, human"}, "[5]": {"target": "T4, GlyR α1^F108A (Homo sapiens, UniProt P23415, F136A)", "T4 sequence (P23415 29-457 F136A)": "T1 sequence (P23415 29-457 L126A) with A98L, F108A", "format": "cell-based"}, "[6]": {"details": "read-out: Zn^2+ complexation KD; ref [52]; cited from earlier work"}}, "note": "Changes are numbered by the printed parent chain. Where two headings read alike, the source gives them in different places."}
{"compound": "O=C1C[C@@H]2OCC=C3CN4CC[C@]56c7ccccc7N1[C@H]5[C@H]2[C@H]3C[C@H]46", "note": "[strychnine]", "values": [{"measurement": "Effect on Zn^2+ activation", "setting": "[1]", "result": "inhibited"}, {"measurement": "Attenuation of leak current", "setting": "[2]", "result": 100, "unit": "%"}, {"measurement": "Attenuation of leak current", "setting": "[3]", "result": "90 ± 4", "unit": "%"}, {"measurement": "Loss of potency inhibiting leak current compared to glycine-activated currents", "setting": "[4]", "result": 10, "unit": "fold"}]}
{"compound": "picrotoxin", "values": [{"measurement": "Effect on Zn^2+ activation", "setting": "[1]; picrotoxin, α1^L98A, Zn^2+ EC50-activated currents (Fig. 2f)", "result": "inhibited"}]}
{"compound": "c1ccc(CN(CCN(Cc2ccccn2)Cc2ccccn2)Cc2ccccn2)nc1", "note": "[TPEN, N,N,N’,N’-tetrakis-(2-pyridylmethyl)-ethylenediamine]", "values": [{"measurement": "Effect on leak current (component caused by Zn^2+ contamination)", "setting": "[4]; TPEN 100 μM, α1^L98A, α1^F99A, α1^F108A, α1^L134A", "result": "reduced"}]}
{"compound": "N#C[B-](c1ccccc1)(c1ccccc1)c1ccccc1", "note": "[CTB, cyanotriphenylborate]", "values": [{"measurement": "Effect on Zn^2+-activated currents", "setting": "[5]", "result": "abolished"}, {"measurement": "Standing current remaining after block of spontaneous leak", "setting": "[4]; CTB 20 μM, considered full abolition of receptor-mediated leak", "result": "less than 50 pA"}]}
{"compound": "O=C(O)CNC(CO)(CO)CO", "note": "[tricine]", "values": [{"measurement": "Kd", "setting": "[6]", "result": 10, "unit": "µM"}]}
